# From patent US9675592B2, “Methods and compositions for bacteria infections” (priority 2013, dated 2017)
# Read-outs that look alike come from different tables or passages of the source.
# Legend:
# [1] = target: PurC (unrelated protein, control) (Bacillus anthracis, UniProt Q81ZH5); type: binding; conditions: read-out: KD PurC (control)
# [2] = target: cytoplasmic domain of VraS (VraS-C) (Staphylococcus aureus, UniProt Q99SZ7); experiment: biochemical; type: binding; conditions: for Kd / RUmax VraS: new run with His-tagged VraS; for Kd: NB = No Binding, read-out: KD VraS; for binding to VraS-C: SPR
# cytoplasmic domain of VraS (VraS-C), sequence (Q99SZ7 70-347): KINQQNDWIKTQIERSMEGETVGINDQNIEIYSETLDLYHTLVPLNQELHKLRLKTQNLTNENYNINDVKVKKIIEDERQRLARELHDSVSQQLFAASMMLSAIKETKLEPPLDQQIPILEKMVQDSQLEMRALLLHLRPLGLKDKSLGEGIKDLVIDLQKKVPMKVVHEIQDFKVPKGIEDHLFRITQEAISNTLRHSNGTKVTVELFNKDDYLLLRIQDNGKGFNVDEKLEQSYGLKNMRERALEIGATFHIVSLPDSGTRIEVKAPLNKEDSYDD
# VraR = VraR (Staphylococcus aureus, UniProt Q7A4R9); experiment: biochemical; type: binding; conditions: for Kd: NB = No Binding
# VraR, sequence (Q7A4R9 whole entry): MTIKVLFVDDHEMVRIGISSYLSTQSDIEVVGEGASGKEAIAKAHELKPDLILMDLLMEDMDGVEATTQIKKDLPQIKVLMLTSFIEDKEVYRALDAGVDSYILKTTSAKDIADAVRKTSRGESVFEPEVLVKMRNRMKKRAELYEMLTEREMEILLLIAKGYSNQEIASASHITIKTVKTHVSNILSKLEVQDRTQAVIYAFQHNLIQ
# [3] = test system: vraSR promoter (Pvra-lux reporter in strain 923); experiment: Primary screen, relative luminescence (vraSR expression)
# [4] = test system: test strain 923 pPvra-lux; experiment: Secondary screen / synergy confirmation of Top 40, relative growth with oxacillin; type: cell-based, Staphylococcus aureus; conditions: Top 40 library, compound at maximum non-GI conc
# Protocol: In the secondary screen each microtiter plate contained either cells in TSB alone (16 replicates), cells with oxacillin (2 μg/mL, 31 replicates), or cells with test compound and oxacillin (2 μg/mL, 49 wells). Each compound was assayed in four separate biological replicates.
# Synergy Confirmation of “Top 40”. […]
# [5] = test system: test strain (923 pPvra-lux); experiment: Growth inhibition by compound alone (maximum non-growth-inhibitory concentration); type: cell-based, Staphylococcus aureus; conditions: compound alone; maximum concentration where it did NOT inhibit growth
# [6] = test system: vraSR promoter (Pvra-lux reporter in strain 923); type: cell-based, Staphylococcus aureus; conditions: for RL Ox avg: Top 40 library, with oxacillin, compound at maximum non-GI conc; for vraSR repressing synergist: overall class from syn and rep
# Protocol: In the secondary screen each microtiter plate contained either cells in TSB alone (16 replicates), cells with oxacillin (2 μg/mL, 31 replicates), or cells with test compound and oxacillin (2 μg/mL, 49 wells). Each compound was assayed in four separate biological replicates. […]
# multiple strains of MRSA = experiment: MICs (minimal inhibitory concentrations) vs multiple strains of MRSA; type: cell-based, Staphylococcus aureus
# [7] = test system: test strain 923 pPvra-lux (USA300 MRSA); experiment: Primary screen, relative growth in presence of oxacillin; conditions: compound 10 μM with oxacillin 2 μg/mL, absorbance 24 h, <0.50 = dead cells = hit
# [8] = primary screen, compound 10 μM with oxacillin 2 μg/mL, <0.50 = vraSR repressed = hit
# [9] = isolate 923, SCCmec IV, ST 8, compound at 4 mg/L
# [10] = isolate 1176, SCCmec II, ST 231, compound at 4 mg/L
# [11] = isolate 2169, SCCmec IV, ST 72, compound at 4 mg/L
# [12] = isolate 8004-01, SCCmec III, ST 239, compound at 4 mg/L
# [13] = isolate 8010-01, SCCmec IV, ST 8, compound at 4 mg/L
# [14] = isolate 8227-01, SCCmec IV, ST 87, compound at 4 mg/L
# [15] = isolate 11095, SCCmec II, ST 105, compound at 4 mg/L
# [16] = isolate 13113, SCCmec II, ST 5, compound at 4 mg/L
# [17] = isolate 13354, SCCmec IV, ST 5, compound at 4 mg/L
# [18] = isolate 14315, SCCmec IV, ST 1, compound at 4 mg/L
# [19] = isolate Q2461, SCCmec VT, ST 59, compound at 4 mg/L
# PurC (unrelated protein, control), sequence (Q81ZH5 whole entry, looked up, the tested form may be a part): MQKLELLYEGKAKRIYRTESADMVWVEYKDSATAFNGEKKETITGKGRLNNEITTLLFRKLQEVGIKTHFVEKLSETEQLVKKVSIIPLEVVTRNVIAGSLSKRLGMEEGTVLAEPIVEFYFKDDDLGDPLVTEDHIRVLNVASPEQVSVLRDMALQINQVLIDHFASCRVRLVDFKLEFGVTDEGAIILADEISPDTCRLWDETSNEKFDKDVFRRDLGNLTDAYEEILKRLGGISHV
smiles,measurement,setting,value
Cc1ccc(C)c(-c2nnc(NC(=O)c3nc4ccccc4s3)o2)c1 [F2518-0327],Kd,[1],> 100 µM
same,Kd,[2],> 100 µM
same,RUmax VraR,VraR; His-tagged VraR,46.5 ± 2.9
same,Kd,VraR; His-tagged VraR,15.4 ± 6.4 µM
same,binding to VraR,VraR; SPR,bound
COc1cccc(-c2nnc(NC(=O)c3cccc(F)c3)o2)c1 [F1374-0327],Kd,[1],> 100 µM
same,Kd,[2],> 100 µM
same,Kd,VraR; His-tagged VraR,> 100 µM
CS(=O)(=O)c1ccc(-c2nnc(NC(=O)c3ccc(Cl)s3)o2)cc1 [F2645-0790],Kd,[1],> 100 µM
same,Kd,[2],> 100 µM
same,Kd,VraR; His-tagged VraR,> 100 µM
Fc1cccc(Nc2nc(Nc3ccc(F)c(Cl)c3)nc(N3CCOCC3)n2)c1 [F2703-0396],RL avg (relative luminescence),[3]; [8],0.19
same,RG Ox avg,[4],0.01
same,maximum non-GI conc,[5],400 µg/mL
same,RL Ox avg,[6],0.34
same,vraSR repressing synergist,[6],1. confirmed
same,Ox MIC in presence of compound,"multiple strains of MRSA; isolate 923, SCCmec IV, ST 8, compound at 2 mg/L",<0.25 µg/mL
same,Ox MIC in presence of compound,"multiple strains of MRSA; isolate 1176, SCCmec II, ST 231, compound at 2 mg/L",<0.5 µg/mL
same,Ox MIC in presence of compound,"multiple strains of MRSA; isolate 2169, SCCmec IV, ST 72, compound at 2 mg/L",<0.25 µg/mL
same,Ox MIC in presence of compound,"multiple strains of MRSA; isolate 8004-01, SCCmec III, ST 239, compound at 2 mg/L",64 µg/mL
same,Ox MIC in presence of compound,"multiple strains of MRSA; isolate 8010-01, SCCmec IV, ST 8, compound at 2 mg/L",<0.25 µg/mL
same,Ox MIC in presence of compound,"multiple strains of MRSA; isolate 8227-01, SCCmec IV, ST 87, compound at 2 mg/L",<0.06 µg/mL
same,Ox MIC in presence of compound,"multiple strains of MRSA; isolate 11095, SCCmec II, ST 105, compound at 2 mg/L",<2 µg/mL
same,Ox MIC in presence of compound,"multiple strains of MRSA; isolate 13113, SCCmec II, ST 5, compound at 2 mg/L",<0.13 µg/mL
same,Ox MIC in presence of compound,"multiple strains of MRSA; isolate 13354, SCCmec IV, ST 5, compound at 2 mg/L",<0.13 µg/mL
same,Ox MIC in presence of compound,"multiple strains of MRSA; isolate 14315, SCCmec IV, ST 1, compound at 2 mg/L",<0.5 µg/mL
same,Ox MIC in presence of compound,"multiple strains of MRSA; isolate Q2461, SCCmec VT, ST 59, compound at 2 mg/L",<0.13 µg/mL
same,RG avg (relative growth),[7],0.06
CC(C)(C)c1csc(NC(=O)c2cccc(NS(=O)(=O)c3ccc(F)cc3)c2)n1 [F2619-0556],RL avg (relative luminescence),[3]; [8],0.52
same,RG Ox avg,[4],0.01
same,maximum non-GI conc,[5],400 µg/mL
same,RL Ox avg,[6],0.28
same,vraSR repressing synergist,[6],1. confirmed
same,Ox MIC in presence of compound,multiple strains of MRSA; [9],<0.25 µg/mL
same,Ox MIC in presence of compound,multiple strains of MRSA; [10],<0.5 µg/mL
same,Ox MIC in presence of compound,multiple strains of MRSA; [11],<0.25 µg/mL
same,Ox MIC in presence of compound,multiple strains of MRSA; [12],<4 µg/mL
same,Ox MIC in presence of compound,multiple strains of MRSA; [13],<0.25 µg/mL
same,Ox MIC in presence of compound,multiple strains of MRSA; [14],<0.06 µg/mL
same,Ox MIC in presence of compound,multiple strains of MRSA; [15],128 µg/mL
same,Ox MIC in presence of compound,multiple strains of MRSA; [16],<0.13 µg/mL
same,Ox MIC in presence of compound,multiple strains of MRSA; [17],<0.13 µg/mL
same,Ox MIC in presence of compound,multiple strains of MRSA; [18],<0.5 µg/mL
same,Ox MIC in presence of compound,multiple strains of MRSA; [19],1 µg/mL
same,RG avg (relative growth),[7],0.25
COc1cccc(-c2nnc(NC(=O)c3ccc(Cl)s3)o2)c1 [F1374-0351],Kd,[1],> 100 µM
same,Kd,[2],> 100 µM
same,Kd,VraR; His-tagged VraR,> 100 µM
O=C(Nc1nnc(-c2ccccc2Cl)o1)c1nc2ccccc2s1 [F1374-0033],Kd,[1],> 100 µM
same,binding to VraS-C,[2],bound
same,RUmax VraS,[2],64.3 ± 5.4
same,Kd,[2],19.6 ± 4.4 µM
same,Kd,VraR; His-tagged VraR,> 100 µM
O=C(Nc1nnc(-c2ccccc2Cl)o1)c1cccc(Oc2ccccc2)c1 [F1374-0081],Kd,[1],> 100 µM
same,Kd,[2],> 100 µM
same,Kd,VraR; His-tagged VraR,> 100 µM
O=C(Nc1nnc(-c2ccc(Br)cc2)o1)c1cccc(C(F)(F)F)c1 [F2518-0477],Kd,[1],> 100 µM
same,Kd,[2],> 100 µM
same,Kd,VraR; His-tagged VraR,> 100 µM
O=C(Nc1nnc(-c2ccccc2Cl)o1)c1cccc(C(F)(F)F)c1 [F1374-0037],RL avg (relative luminescence),[3],0.35
same,Kd,[1],> 100 µM
same,binding to VraS-C,[2],bound
same,RUmax VraS,[2],45.1 ± 3.2
same,Kd,[2],25.8 ± 4.8 µM
same,Kd,VraR; His-tagged VraR,> 100 µM
same,RG avg (relative growth),[7],0.02
Cc1ccc(C)c(-c2nnc(NC(=O)c3cc(Cl)sc3Cl)o2)c1 [F2518-0360],Kd,[1],> 100 µM
same,Kd,[2],> 100 µM
same,Kd,VraR; His-tagged VraR,> 100 µM
Cc1ccc(S(=O)(=O)Nc2ccccc2C(=O)Nc2nc3c(C)ccc(C)c3s2)cc1 [F1813-0712],RL avg (relative luminescence),[3],0.00
same,RG Ox avg,[4],0.71
same,maximum non-GI conc,[5],400 µg/mL
same,RL Ox avg,[6],0.20
same,vraSR repressing synergist,[6],2. possible
same,Ox MIC in presence of compound,multiple strains of MRSA; [9],4 µg/mL
same,Ox MIC in presence of compound,multiple strains of MRSA; [10],16 µg/mL
same,Ox MIC in presence of compound,multiple strains of MRSA; [11],8 µg/mL
same,Ox MIC in presence of compound,multiple strains of MRSA; [12],512 µg/mL
same,Ox MIC in presence of compound,multiple strains of MRSA; [13],16 µg/mL
same,Ox MIC in presence of compound,multiple strains of MRSA; [14],0.5 µg/mL
same,Ox MIC in presence of compound,multiple strains of MRSA; [15],256 µg/mL
same,Ox MIC in presence of compound,multiple strains of MRSA; [16],16 µg/mL
same,Ox MIC in presence of compound,multiple strains of MRSA; [17],8 µg/mL
same,Ox MIC in presence of compound,multiple strains of MRSA; [18],16 µg/mL
same,Ox MIC in presence of compound,multiple strains of MRSA; [19],16 µg/mL
same,RG avg (relative growth),[7],−0.01
Oc1ccc(C2(c3cccc(Br)c3)CCCCC2)cc1 [F0020-1560],RL avg (relative luminescence),[3]; [8],−0.01
same,RG Ox avg,[4],0.68
same,maximum non-GI conc,[5],40 µg/mL
same,RL Ox avg,[6],0.17
same,vraSR repressing synergist,[6],2. possible
same,Ox MIC in presence of compound,"multiple strains of MRSA; isolate 923, SCCmec IV, ST 8, compound at 1 mg/L",1 µg/mL
same,Ox MIC in presence of compound,"multiple strains of MRSA; isolate 1176, SCCmec II, ST 231, compound at 1 mg/L",<0.5 µg/mL
same,Ox MIC in presence of compound,"multiple strains of MRSA; isolate 2169, SCCmec IV, ST 72, compound at 1 mg/L",1 µg/mL
same,Ox MIC in presence of compound,"multiple strains of MRSA; isolate 8004-01, SCCmec III, ST 239, compound at 1 mg/L",<4 µg/mL
same,Ox MIC in presence of compound,"multiple strains of MRSA; isolate 8010-01, SCCmec IV, ST 8, compound at 1 mg/L",1 µg/mL
same,Ox MIC in presence of compound,"multiple strains of MRSA; isolate 8227-01, SCCmec IV, ST 87, compound at 1 mg/L",0.25 µg/mL
same,Ox MIC in presence of compound,"multiple strains of MRSA; isolate 11095, SCCmec II, ST 105, compound at 1 mg/L",<2 µg/mL
same,Ox MIC in presence of compound,"multiple strains of MRSA; isolate 13113, SCCmec II, ST 5, compound at 1 mg/L",<0.13 µg/mL
same,Ox MIC in presence of compound,"multiple strains of MRSA; isolate 13354, SCCmec IV, ST 5, compound at 1 mg/L",<0.13 µg/mL
same,Ox MIC in presence of compound,"multiple strains of MRSA; isolate 14315, SCCmec IV, ST 1, compound at 1 mg/L",<0.5 µg/mL
same,Ox MIC in presence of compound,"multiple strains of MRSA; isolate Q2461, SCCmec VT, ST 59, compound at 1 mg/L",4 µg/mL
same,RG avg (relative growth),[7],0.02
